Data: PMC9230590, “Pharmacokinetics and Tissue Distribution of Enavogliflozin in Mice and Rats” (Pharmaceutics, 2022)

How the values were obtained:
SGLT1 = tested on: SGLT1; design: method as in PMID 32183468; details: cited from earlier work
[1] = Pharmacokinetics after intravenous injection in mice; format: in vivo, ICR mice; details: for AUC(0-inf) / AUC(0-t) / half-life / MRT / clearance / Vd: ICR, mouse; for AUC(0-inf) / AUC(0-t) / half-life / MRT / clearance / Vd / Co: plasma; for AUC∞/D / Co/D: dose normalized
Experimental: Fifty-four ICR mice were randomly divided into nine groups (n = 6 per group; Table 1) and intravenously administered an enavogliflozin solution at doses of 0.3, 1, and 3 mg/kg. The drug was dissolved in a mixture of 10% DMSO and 90% saline and injected via the tail vein. Before blood sampling, mice were anesthetized for 5 min using 2% isoflurane in a vaporizer with an oxygen flow of 0.8 L/min. Blood sampling used a sparse sampling method via the right or left retro-orbital vein using heparinized capillary tubes (Heinz Herenz, Hamburg, Germany). Final blood was collected from the abdominal artery using a heparin-treated 1 mL syringe (Jung Lim Co. Ltd., Choong-Buk, Korea) under isoflurane anesthesia (Table 1). Blood samples were collected at 0, 0.083, 0.25, 0.5, 1, 2, 4, 8, and 24 h and centrifuged at 12,000× g for 1 min to separate plasma. An aliquot (30 µL) of each plasma sample was stored at −80 °C until enavogliflozin analysis.
(§1) Concentrations of enavogliflozin in plasma and tissue homogenate samples were analyzed using an Agilent 6430 triple quadrupole liquid chromatography-mass spectrometry (LC–MS/MS) system (Agilent, Wilmington, DE, USA) following a previously published method.
(§2) The data were expressed as the means ± standard deviation for the groups. Pharmacokinetic parameters, such as the area under the plasma concentration–time curve during the period of observation (AUClast), AUC to infinite time (AUC∞), clearance (CL), and volume of distribution at steady-state (Vd,ss), the terminal half-life (t1/2), and mean residence time (MRT) were calculated using non-compartment analysis with WinNonlin software (version 5.1; Pharsights, Cary, NC, USA). The AUC ratios were calculated by dividing the AUClast of enavogliflozin in the tissue samples by the plasma AUClast values of enavogliflozin [15].

[2] = Pharmacokinetics after intravenous injection in rats; format: in vivo, Sprague Dawley (SD) rats; details: for AUC∞/D / Co/D: dose normalized; for Co / half-life / MRT / clearance / Vd / AUC(0-inf) / AUC(0-t): plasma; for half-life / MRT / clearance / Vd / AUC(0-inf) / AUC(0-t): rat; for half-life / MRT: incomplete elimination phase; for Vd: read-out: Vd,ss
Experimental: Twelve rats were randomly divided into three groups (n = 4 per each group) and injected with an enavogliflozin solution at doses of 0.3, 1, and 3 mg/kg. The drug was dissolved in a mixture of 10% DMSO and 90% saline and administered intravenously via the tail vein. Before blood sampling, rats were anesthetized using 2% isoflurane in a vaporizer with an oxygen flow of 0.8 L/min, for 5 min. Blood samples (approximately 100 µL) were collected at 0, 0.05, 0.33, 0.67, 1, 2, 4, 6, and 8 h via the jugular vein under isoflurane anesthesia using a heparin-treated 1 mL syringe (Jung Lim Co. Ltd., Jincheon, Korea). Samples were centrifuged at 12,000× g for 1 min to separate the plasma. An aliquot (30 µL) of each plasma sample was stored at −80 °C until analysis.
as §1, §2

[3] = design: method as in PMID 32183468; details: mice; cited from earlier work
SGLT2 = tested on: SGLT2; design: method as in PMID 32183468; details: cited from earlier work

OC[C@H]1O[C@@H](c2cc(Cc3ccc(C4CC4)cc3)c(Cl)c3c2CCO3)[C@H](O)[C@@H](O)[C@@H]1O [enavogliflozin, (2S,3R,4R,5S,6R)-2-(7-chloro-6-(4-cyclopropylbenzyl) -2,3-dihydrobenzofuran-4-yl)-6-(hydroxymethyl)tetrahydro-2H-pyran-3,4,5-triol]
IC50 (SGLT1): 549 ± 140 nM
AUC(0-inf) ([1]; IV 0.3 mg/kg): 512 ± 30.7 ng·h/mL
AUC(0-t) ([1]; IV 0.3 mg/kg): 479 ± 33.6 ng·h/mL
half-life ([1]; IV 0.3 mg/kg): 6 ± 1.3 h
AUC(0-inf) ([1]; IV 1 mg/kg): 1630 ± 336 ng·h/mL
AUC(0-t) ([1]; IV 1 mg/kg): 1510 ± 282 ng·h/mL
half-life ([1]; IV 1 mg/kg): 6.5 ± 1.4 h
AUC(0-inf) ([1]; IV 3 mg/kg): 5080 ± 1060 ng·h/mL
AUC(0-t) ([1]; IV 3 mg/kg): 4660 ± 998 ng·h/mL
half-life ([1]; IV 3 mg/kg): 6.6 ± 0.5 h
MRT ([1]; IV 0.3 mg/kg): 5.2 ± 0.4 h
clearance ([1]; IV 0.3 mg/kg, read-out: CL): 9.8 ± 0.6 mL/min/kg
Vd ([1]; IV 0.3 mg/kg, read-out: Vd,ss): 3.1 ± 0.3 L/kg
MRT ([1]; IV 1 mg/kg): 4.9 ± 0.5 h
clearance ([1]; IV 1 mg/kg, read-out: CL): 10.7 ± 2.5 mL/min/kg
Vd ([1]; IV 1 mg/kg, read-out: Vd,ss): 3.1 ± 0.6 L/kg
MRT ([1]; IV 3 mg/kg): 5.2 ± 0.8 h
clearance ([1]; IV 3 mg/kg, read-out: CL): 10.2 ± 2.1 mL/min/kg
Vd ([1]; IV 3 mg/kg, read-out: Vd,ss): 3.2 ± 0.5 L/kg
clearance ([1]; IV 0.3–3 mg/kg, all doses together, read-out: Systemic clearance): 10.1 ± 1.59 mL/min/kg
Vd ([1]; IV, range over doses 0.3–3 mg/kg, read-out: steady-state volume of distribution (Vd,ss)): 3.1 to 3.2 L/kg
AUC∞/D ([1]; IV 0.3 mg/kg): 1706.8 ± 102.3
Co/D ([1]; IV 0.3 mg/kg): 416.8 ± 31.3
Co ([1]; IV 0.3 mg/kg): 125.0 ± 9.4 ng/mL
AUC∞/D ([1]; IV 1 mg/kg): 1626.7 ± 335.6
Co/D ([1]; IV 1 mg/kg): 408.6 ± 103.2
Co ([1]; IV 1 mg/kg): 408.6 ± 103.2 ng/mL
AUC∞/D ([1]; IV 3 mg/kg): 1694.3 ± 354.5
Co/D ([1]; IV 3 mg/kg): 424.7 ± 62.2
Co ([1]; IV 3 mg/kg): 1274.1 ± 186.6 ng/mL
AUC∞/D ([2]; IV 0.3 mg/kg): 2831.6 ± 359.0
Co/D ([2]; IV 0.3 mg/kg): 4231.2 ± 1720.0
Co ([2]; IV 0.3 mg/kg): 1269.4 ± 516.0 ng/mL
AUC∞/D ([2]; IV 1 mg/kg): 2798.6 ± 551.4
Co/D ([2]; IV 1 mg/kg): 3956.4 ± 1028.2
Co ([2]; IV 1 mg/kg): 3956.4 ± 1028.2 ng/mL
AUC∞/D ([2]; IV 3 mg/kg): 2462.4 ± 429.3
Co/D ([2]; IV 3 mg/kg): 3419.4 ± 1364.8
Co ([2]; IV 3 mg/kg): 10,258.1 ± 4094.5 ng/mL
plasma concentrations at 24 h ([2]; IV 0.3, 1, and 3 mg/kg groups): below the detection limit
half-life ([2]; Sprague Dawley, IV 0.3 mg/kg): 2.6 ± 0.4 h
half-life ([2]; Sprague Dawley, IV 1 mg/kg): 2.9 ± 0.4 h
half-life ([2]; Sprague Dawley, IV 3 mg/kg): 4.3 ± 0.6 h
MRT ([2]; Sprague Dawley, IV 0.3 mg/kg): 2.5 ± 0.4 h
clearance ([2]; Sprague Dawley, IV 0.3 mg/kg, read-out: CL): 6 ± 0.8 mL/min/kg
Vd ([2]; Sprague Dawley, IV 0.3 mg/kg): 0.9 ± 0.2 L/kg
MRT ([2]; Sprague Dawley, IV 1 mg/kg): 2.9 ± 0.4 h
clearance ([2]; Sprague Dawley, IV 1 mg/kg, read-out: CL): 6.2 ± 1.4 mL/min/kg
Vd ([2]; Sprague Dawley, IV 1 mg/kg): 1.1 ± 0.1 L/kg
MRT ([2]; Sprague Dawley, IV 3 mg/kg): 5.1 ± 1.1 h
clearance ([2]; Sprague Dawley, IV 3 mg/kg, read-out: CL): 6.9 ± 1.2 mL/min/kg
Vd ([2]; Sprague Dawley, IV 3 mg/kg): 2.1 ± 0.4 L/kg
AUC(0-inf) ([2]; Sprague-Dawley, IV 0.3 mg/kg): 850 ± 108 ng·h/mL
AUC(0-t) ([2]; Sprague-Dawley, IV 0.3 mg/kg): 784 ± 94.4 ng·h/mL
AUC(0-inf) ([2]; Sprague-Dawley, IV 1 mg/kg): 2800 ± 551 ng·h/mL
AUC(0-t) ([2]; Sprague-Dawley, IV 1 mg/kg): 2510 ± 447 ng·h/mL
AUC(0-inf) ([2]; Sprague-Dawley, IV 3 mg/kg): 7390 ± 1290 ng·h/mL
AUC(0-t) ([2]; Sprague-Dawley, IV 3 mg/kg): 5610 ± 751 ng·h/mL
clearance ([2]; Sprague-Dawley, IV 0.3–3 mg/kg, all doses together, read-out: Systemic clearance): 6.35 ± 1.14 mL/min/kg
ratio of AUC in kidney to AUC in plasma [3]: 85.0 ± 16.1
IC50 (SGLT2): 0.8 ± 0.3 nM
mode of SGLT2 inhibition (SGLT2; restrained recovery of SGLT2 activity after removal): reversibly and competitively inhibited SGLT2
difference in IC50 values for SGLT2 versus SGLT1 (SGLT2; selectivity SGLT2 over SGLT1): 667 fold
